Results published in patent US4510136A (priority 1983, dated 1985).

Assays:
Type in all cases: in vivo
[1] = test system: Puccinia recondita var. tritici; experiment: Wheat leaf rust control on sprayed wheat seedlings (Example 79); conditions: 100 ppm spray, day before inoculation; for pest or weed control at 100 ppm: Puccinia recondita, 168 h
Method: The compounds of this invention were dissolved in acetone in an amount equal to 6% of the final volume and then suspended at a concentration of 100 ppm in purified water containing 250 ppm of the surfactant TREM 014 (polyhydric alcohol esters). These suspensions were sprayed to the point of run-off on wheat seedlings. The following day, the plants were inoculated with a spore suspension of Puccinia recondita var. tritici, causal agent of wheat leaf rust, and incubated in a saturated humidity chamber at 20° for 24 hours and then in a growth room for an additional 7 days, when disease ratings were made. Treated plants from successful treatments had few or no rust pustules while the untreated plants had numerous rust pustules on each leaf.

[2] = test system: Erysiphe cichoracearum; experiment: Cucumber powdery mildew control on sprayed cucumber seedlings (Example 80); conditions: 100 ppm spray, day before inoculation; for pest or weed control at 100 ppm: Golovinomyces cichoracearum, 168 h
Method: (§1) These suspensions were sprayed to the point of run-off, on cucumber seedlings. The following day, the plants were inoculated with a spore suspension of the fungus Erysiphe cichoracearum, causal agent of cucumber powdery mildew, and incubated in a growth room for 7 days. Disease ratings were then made. Treated plants from successful treatments had little or no powdery mildew in contrast to untreated plants which were covered with powdery mildew. Phytotoxicity in the form of growth reduction or hormonal effects was observed on some of the plants in association with disease control.

[3] = test system: Venturia inaequalis; experiment: Apple scab control on sprayed apple seedlings (Example 82); conditions: 100 ppm spray, day before inoculation; for pest or weed control at 100 ppm: Venturia inaequalis
Method: These suspensions were sprayed to the point of run-off on apple seedlings. The following day, the plants were inoculated with a spore suspension of the fungus Venturia inaequalis, causal agent of apple scab, and incubated in a saturated humidity chamber at 20° for 24 hours and then in a growth room for an additional 10-12 days. Treated plants from successful treatments had fewer apple scab lesions when compared to untreated plants which were covered with scab lesions. Phytotoxicity expressed as growth reduction was observed on some of the plants in association with disease control.

[4] = test system: Helminthosporium maydis; experiment: Southern corn leaf blight control on sprayed corn seedlings (Example 83); conditions: 100 ppm spray, day before inoculation; for pest or weed control at 100 ppm: Bipolaris maydis, 192 h
Method: The compounds of the previous examples were again dissolved in acetone in an amount equal to 6% of the final volume and then suspended at a concentration of 100 ppm in purified water containing 250 ppm of the surfactant TREM 014 (polyhydric alcohol esters). These suspensions were sprayed to the point of run-off on corn seedlings. The following day, the plants were inoculated with a spore suspension of Helminthosporium maydis, causal agent of southern corn leaf blight, and incubated in a saturated humidity chamber at 20° for 24 hours and then in a growth room for an additional 7 days, when disease ratings were made. Treated plants from successful treatments had few or no lesions while the untreated plants had numerous lesions on each leaf. Phytotoxicity expressed as growth reduction was observed on some of the plants in association with disease control.

[5] = test system: Cercospora arachidicola; experiment: Peanut early leafspot control on sprayed peanut seedlings (Example 84); conditions: for pest or weed control at 100 ppm / % Control Peanut Easly Leafspot: 100 ppm spray, day before inoculation
Method: These suspensions were sprayed to the point of run-off on peanut seedlings. The following day, the plants were inoculated with a spore suspension of Cercospora arachidicola, causal agent of peanut early leafspot, and incubated in a saturated humidity chamber at 27° for 24 hours and then in a growth room for an additional 14 days, when disease ratings were made. Treated plants from successful treatments had few or no leafspots while the untreated plants had numerous leafspots.

[6] = test system: Rhizoctonia solani; experiment: Rice sheath blight control on sprayed rice seedlings (Example 87); conditions: 100 ppm spray, day before inoculation; for pest or weed control at 100 ppm: Rhizoctonia solani, 168 h
Method: The compounds of the previous examples were again dissolved in acetone in an amount equal to 6% of the final volume and then suspended at a concentration of 100 ppm in purified water containing 250 ppm of the surfactant TREM 014 (polyhydric alcohol esters). This suspension was sprayed to the point of run-off on rice seedlings. The following day, the plants were inoculated with a mixture of bran and the mycelium of Rhizoctonia solani, causal agent of sheath blight of rice, and incubated in a growth room for 7 days. Disease ratings were then made. Treated plants from successful treatments had little sheath blight in contrast to untreated plants which were covered with sheath blight.

[7] = test system: Pyricularia oryzae; experiment: whole plant or invertebrate; conditions: for pest or weed control at 100 ppm: Pyricularia oryzae, 168 h, read-out: % Control of Rice Blast, 100 ppm spray, day before inoculation; for % Control of Rice Blast: 100 ppm spray, day before inoculation
[8] = test system: Phytophthora infestans; experiment: whole plant or invertebrate; conditions: for pest or weed control at 100 ppm: Phytophthora infestans, in Solanum lycopersicum, 168 h, read-out: % Control of Tomato Late Blight, 100 ppm spray, day before inoculation; for % Control of Tomato Late Blight: 100 ppm spray, day before inoculation
[9] = test system: cucumber seedlings; experiment: Phytotoxicity on cucumber seedlings (Example 80); set-up: key: G = growth reduction; H = hormonal effects; conditions: 100 ppm spray
Method: as §1, with “The compounds of the previous example were again dissolved in acetone in an amount equal to 6% of the final volume and then suspended at a concentration of 100 ppm in purified water containing 250 ppm of the surfactant TREM 014 (polyhydric alcohol esters). These” for “These”

[10] = Mycosphaerella arachidis, 360 h, read-out: % Control Peanut Easly Leafspot

## C[Si](Cn1cncn1)(c1ccccc1)c1ccccc1Cl (stereo not shown) [2-Chlorophenyl(methyl)phenyl(1H-1,2,4-triazol-1-ylmethyl)silane]
[1]
  pest or weed control at 100 ppm: 80%
[2]
  pest or weed control at 100 ppm: 100%
[3]
  pest or weed control at 100 ppm: 90%
[4]
  pest or weed control at 100 ppm: 100%
[5]; [10]
  pest or weed control at 100 ppm: 100%
[6]
  pest or weed control at 100 ppm: 90%
[7]
  pest or weed control at 100 ppm: 100%
[8]
  pest or weed control at 100 ppm: 0%

## (1,1'-Biphenyl-4-yl)dimethyl(1H-1,2,4-triazol-1-ylmethyl)silane, 2:1 complex with cupric chloride
[1]
  % Control Wheat Rust: 100%
[2]
  % Control Cucumber Powdery Mildew: 100%
[3]
  % Control Apple Scab: 100%
[4]
  % Control of Southern Corn Leaf Blight: 80%
[5]
  % Control Peanut Easly Leafspot: 100%
[6]
  % Control of Rice Sheath Blight: 80%
[7]
  % Control of Rice Blast: 0%
[8]
  % Control of Tomato Late Blight: 0%

## C[Si](C)(Cn1cncn1)c1cccc(C(F)(F)F)c1 [Dimethyl(1H-1,2,4-triazol-1-ylmethyl)(3-trifluoromethylphenyl)silane]
[1]
  pest or weed control at 100 ppm: 0%
[2]
  pest or weed control at 100 ppm: 100%
[3]
  pest or weed control at 100 ppm: 0%
[4]
  pest or weed control at 100 ppm: 0%
[5]; [10]
  pest or weed control at 100 ppm: 0%
[6]
  pest or weed control at 100 ppm: 0%
[7]
  pest or weed control at 100 ppm: 0%
[8]
  pest or weed control at 100 ppm: 0%

## CCCCCCCCCCCCCCCCCC[Si](C)(C)Cn1cncn1 [Dimethyl(octadecyl)(1H-1,2,4-triazol-1-ylmethyl)silane]
[1]
  pest or weed control at 100 ppm: 0%
[2]
  pest or weed control at 100 ppm: 0%
[3]
  pest or weed control at 100 ppm: 60%
[4]
  pest or weed control at 100 ppm: 0%
[5]; [10]
  pest or weed control at 100 ppm: 0%
[6]
  pest or weed control at 100 ppm: 0%
[7]
  pest or weed control at 100 ppm: 0%
[8]
  pest or weed control at 100 ppm: 0%

## C[Si](C)(Cn1cncn1)c1ccc(-c2ccccc2)cc1.O=S(=O)([O-])[O-].[Mn+2] [(1,1'-Biphenyl-4-yl)dimethyl(1H-1,2,4-triazol-1-ylmethyl)silane, 1:1 complex with manganous sulfate]
[1]
  % Control Wheat Rust: 90%
[2]
  % Control Cucumber Powdery Mildew: 90%
[3]
  % Control Apple Scab: 100%
[4]
  % Control of Southern Corn Leaf Blight: 100%
[5]
  % Control Peanut Easly Leafspot: 100%
[6]
  % Control of Rice Sheath Blight: 0%
[7]
  % Control of Rice Blast: 0%
[8]
  % Control of Tomato Late Blight: 0%

## Clc1ccc([Si](Cn2cncn2)(c2ccc(Cl)cc2)c2ccc(Cl)cc2)cc1 [tris(4-Chlorophenyl)(1H-1,2,4-triazol-1-ylmethyl)silane]
[1]
  pest or weed control at 100 ppm: 40%
[2]
  pest or weed control at 100 ppm: 100%
[3]
  pest or weed control at 100 ppm: 0%
[4]
  pest or weed control at 100 ppm: 0%
[5]; [10]
  pest or weed control at 100 ppm: 0%
[6]
  pest or weed control at 100 ppm: 0%
[7]
  pest or weed control at 100 ppm: 0%
[8]
  pest or weed control at 100 ppm: 0%

## COc1ccc([Si](C)(Cn2cncn2)c2ccc(OC)cc2)cc1 [[bis(4-Methoxyphenyl)]methyl(1H-1,2,4-triazol-1-ylmethyl)silane]
[1]
  pest or weed control at 100 ppm: 0%
[2]
  pest or weed control at 100 ppm: 0%
[3]
  pest or weed control at 100 ppm: 0%
[4]
  pest or weed control at 100 ppm: 90%
[5]; [10]
  pest or weed control at 100 ppm: 30%
[6]
  pest or weed control at 100 ppm: 80%
[7]
  pest or weed control at 100 ppm: 0%
[8]
  pest or weed control at 100 ppm: 0%

## Fc1ccc([Si](Cn2cncn2)(O[Si](Cn2cncn2)(c2ccc(F)cc2)c2ccc(F)cc2)c2ccc(F)cc2)cc1 [Oxybis[bis(4-fluorophenyl)(1H-1,2,4-triazol-1-ylmethyl)silane]]
[1]
  pest or weed control at 100 ppm: 100%
[2]
  pest or weed control at 100 ppm: 100%
[3]
  pest or weed control at 100 ppm: 100%
[4]
  pest or weed control at 100 ppm: 97%
[5]; Mycosphaerella arachidis, 360 h, applied at 20 ppm, read-out: % Control Peanut Easly Leafspot
  pest or weed control at 20 ppm: 93%
[6]
  pest or weed control at 100 ppm: 0%
[7]
  pest or weed control at 100 ppm: 50%
[8]
  pest or weed control at 100 ppm: 0%

## C[Si](C)(Cn1cncn1)c1ccc(S(C)(=O)=O)cc1 [Dimethyl(4-methylsulfonylphenyl)(1H-1,2,4-triazol-1-ylmethyl)silane]
[1]
  pest or weed control at 100 ppm: 0%
[2]
  pest or weed control at 100 ppm: 0%
[3]
  pest or weed control at 100 ppm: 0%
[4]
  pest or weed control at 100 ppm: 0%
[5]; [10]
  pest or weed control at 100 ppm: 0%
[6]
  pest or weed control at 100 ppm: 0%
[7]
  pest or weed control at 100 ppm: 70%
[8]
  pest or weed control at 100 ppm: 0%

## (1,1'-Biphenyl-4-yl)dimethyl(1H-1,2,4-triazol-1-ylmethyl)silane, 1:1 complex with zinc (II) chloride
[1]
  % Control Wheat Rust: 100%
[2]
  % Control Cucumber Powdery Mildew: 80%
[3]
  % Control Apple Scab: 100%
[4]
  % Control of Southern Corn Leaf Blight: 90%
[5]
  % Control Peanut Easly Leafspot: 100%
[6]
  % Control of Rice Sheath Blight: 90%
[7]
  % Control of Rice Blast: 100%
[8]
  % Control of Tomato Late Blight: 90%

## C[Si](O)(Cn1cncn1)c1ccc(-c2ccccc2)cc1 (stereo not shown) [(1,1'-Biphenyl-4-yl)hydroxy(methyl)(1H-1,2,4-triazol-1-ylmethyl)silane]
[1]
  pest or weed control at 100 ppm: 90%
[2]
  pest or weed control at 100 ppm: 100%
[3]
  pest or weed control at 100 ppm: 100%
[4]
  pest or weed control at 100 ppm: 0%
[5]; [10]
  pest or weed control at 100 ppm: 100%
[6]
  pest or weed control at 100 ppm: 0%
[7]
  pest or weed control at 100 ppm: 0%
[8]
  pest or weed control at 100 ppm: 0%

## CCCC[Si](C)(Cn1cncn1)c1ccccc1 (stereo not shown) [Butyl(methyl)phenyl(1H-1,2,4-triazol-1-ylmethyl)silane]
[1]
  pest or weed control at 100 ppm: 0%
[2]
  pest or weed control at 100 ppm: 100%
[3]
  pest or weed control at 100 ppm: 80%
[4]
  pest or weed control at 100 ppm: 0%
[5]; [10]
  pest or weed control at 100 ppm: 0%
[6]
  pest or weed control at 100 ppm: 90%
[7]
  pest or weed control at 100 ppm: 90%
[8]
  pest or weed control at 100 ppm: 0%

## C[Si](C)(Cn1cncn1)C1CCCCC1 [Cyclohexyl(dimethyl)(1H-1,2,4-triazol-1-ylmethyl)silane]
[1]
  pest or weed control at 100 ppm: 0%
[2]
  pest or weed control at 100 ppm: 100%
[3]
  pest or weed control at 100 ppm: 0%
[4]
  pest or weed control at 100 ppm: 50%
[5]; [10]
  pest or weed control at 100 ppm: 0%
[6]
  pest or weed control at 100 ppm: 0%
[8]
  pest or weed control at 100 ppm: 0%
[9]
  Phytotoxicity on cucumber: G

## C[Si](C)(Cn1cncn1)c1ccc(-c2ccccc2)cc1.[Cl][Cu] [1:1 complex of (1,1'-Biphenyl-4-yl)dimethyl(1H-1,2,4-triazol-1-ylmethyl)silane and Cuprous Chloride]
[1]
  % Control Wheat Rust: 0%
[2]
  % Control Cucumber Powdery Mildew: 100%
[3]
  % Control Apple Scab: 100%
[4]
  % Control of Southern Corn Leaf Blight: 100%
[5]
  % Control Peanut Easly Leafspot: 100%
[6]
  % Control of Rice Sheath Blight: 90%
[7]
  % Control of Rice Blast: 100%
[8]
  % Control of Tomato Late Blight: 100%
